Assay results taken from patent publication US11298390B2, “Total flavonoids extract of Gynura formosana Kitam., preparation method therefor and use thereof for treating hyperuricemia” (ZHANGZHOU PIEN TZE HUANG PHARMACEUTICAL CO., LTD., priority 2017, dated 2022).

Tests used:
[1] = tested on: mouse model of hyperuricemia; test: Creatinine level in serum of hyperuricemia model mice; assay type: in vivo, Kunming mice; details: dose 0.0002 g/10 g, once daily 11 days, mean ± SD
Method: (§1) The mouse model of hyperuricemia was established by intraperitoneal injection of xanthine to increase the content of uric acid precursor in the body and thus to increase the generation of uric acid. The mouse model of hyperuricemia was administered via gavage with the total flavonoid extract from Gynura formosana Kitam. The inhibition rates of uric acid and […] in serum of the mouse and the inhibition rate of the activity of xanthine oxidase in the liver of the mouse were recorded to study the effect of the total flavonoid extract on symptoms of gout caused by hyperuricemia.
(§2) The high, medium and low dose groups of the total flavonoid extract were administered via gavage with an aqueous solution of total flavonoid extract from Gynura formosana Kitam. at a dose of 24 mg/10 mL, 12 mg/10 mL, 6 mg/10 mL, respectively. The model group was administered an equal-volume of saline. All of the drugs were administered once daily for continuous 11 days.
(§3) After 1 hour at last administration, the mice received 10% xanthine dissolved in 0.8% CMC-Na via intraperitoneal injection. After 0.5 hours of modeling, the mice were sacrificed and blood was taken from eyeballs. Then the mice were dissected immediately and livers were taken and stored at a low temperature. […]
(§4) The index was calculated by referring to the instructions. […]

[2] = tested on: mouse model of hyperuricemia; test: Uric acid level in serum of hyperuricemia model mice; assay type: in vivo, Kunming mice; details: xanthine i.p. hyperuricemia mice, dose 0.0002 g/10 g, once daily 11 days, mean ± SD
Method: as §1, §2, §3, §4

Oc1ncnc2[nH]ncc12 [allopurinol] was tested, and the Creatinine [1] was 23 ± 1 µM and the “Uric Acid” value [2] was 22.71 ± 0.27 mg/L.
